One test deals with patients. The conditions noted are these: patients treated with gemfibrozil; cited from earlier work.
Another test deals with male LDL R-\-mice. Put plainly: Western diet-induced diabetes in LDL R-/- mice. The conditions noted are these: LDL R-/- mice on Western diet, 4 weeks treatment. Format: in vivo. The source says:
To test the effect of Dunaliella on Diabetes, male LDL R-\-mice (n=30) were fed a Western diet (42% calories from fat) in order to induce Diabetes. After 4 weeks of Western diet feeding, the mice were divided into 6 groups (n=5 in each group) and were fed Western diet fortified by rosiglitazone (0.02% of the diet, weight/weight), crude Dunaliella powder (8% of the diet, weight/weight) or 9-cis retinoic acid (24 nmol/mouse×day). The treatments lasted 4 weeks.
The 8% Dunaliella powder provided ˜1.5 nmol 9-cis retinoic acid/mouse×day. This calculated amount is based on conversion of β-carotene to vitamin A (27 molecules provide 1 molecule of vitamin A and on the ratio of retinoic acid to vitamin A which is about 1 molecule of retinoic acid to 300 molecules of retinol, retinal and retinoic acid).
The following groups were included:
1. Control, Western diet alone. (Control)
2. 9-cis retinoic acid (RA)
4. Dunaliella powder 8% (Dun)

As to `Cc1ccc(C)c(OCCCC(C)(C)C(=O)O)c1` [gemfibrozil], in the test on patients, the “reduction of the rate of coronary events” value was 22%.

As to `CC1=C(/C=C/C(C)=C\C=C\C(C)=C\C(=O)O)C(C)(C)CCC1` [9-cis retinoic acid], in the test with male LDL R-\-mice, the plasma glucose levels result is “did not affect” and the plasma insulin levels entry is recorded as “did not affect”.

(Values after patent US8343549B2, “Therapeutic uses of Dunaliella powder” (Nikken Sohonsha Corporation, priority 2003, dated 2013).)
